Read-outs that look alike come from different tables or passages of the source.
Columns and labels:
SKBR-3 = test: Growth inhibition by MTT, SKBR-3 breast cancer cells; format: cell-based, Human; conditions: Homo sapiens, read-out: IC50 SKBR-3
Procedure: (§1) Growth inhibitory effects of NATURA and other agents on human cancer cells were determined by standard MTT (3-(4,5-dimethylthiazol-2-yl)-2,5-diphenyltetrazolium bromide Test) as described previously. Briefly, cancer cells grown exponentially were aliquoted into 96-well plates at a density of 5000 cells/200 μl per well in RPMI 1640 medium containing 10% FBS overnight. The cells in the plates were then exposed to series of dilution of indicated agent. After 72 h of incubation, 100 μl of the medium was removed from each of the wells and 50 μl of a 1 mg/ml solution of 3-(4,5-dimethylthiazol-2-yl)-2,5-diphenyltetrazolium bromide (MTT) was added to each well and the cells were incubated for additional 4 h. 200 μl of solution of 0.04 N HCl-isopropanol was added to each well to dissolve the black fromazan participates, and absorbance at 540 nm was measured on a 96-Well.

LOVO = test: Growth inhibition by MTT, LOVO colon cancer cells; format: cell-based, Human; conditions: Homo sapiens, LoVo; MTT, 72 h exposure; read-out: IC50 LOVO
Procedure: as §1

DLD-1 = test: Growth inhibition by MTT, DLD-1 colon cancer cells; format: cell-based, Human; conditions: Homo sapiens, DLD-1, 72 h exposure
Procedure: as §1
as §1, with “FIGS. 3-5 show the anticancer affects” for “Growth inhibitory effects”, “NATURA in MCF-7 breast cancer cells, DLD-1 colon cancer cells,” for “NATURA”, “LNCaP hormone-dependent prostate” for “other agents on human”, “cells. The” for “cells were determined by standard MTT (3-(4,5-dimethylthiazol-2-yl)-2,5-diphenyltetrazolium bromide Test) as described previously. Briefly,”, “fetal bovine serum (FBS)” for “FBS”, “96-Well Microplate Reader. Each experiment was repeated at least three times.” for “96-Well.”

LNCaP = test: Growth inhibition by MTT, LNCaP prostate cancer cells; format: cell-based, Human; conditions: Homo sapiens, LNCaP
Procedure: as §1, with “Briefly, cancer cells grown exponentially were aliquoted into 96-well plates at a density of 5000 cells/200 μl per well in RPMI 1640 medium containing 10% FBS overnight.” left out
The cells in the plates were then exposed to series of dilution of indicated agent. After 72 h of incubation, 100 μl of the medium was removed from each of the wells and 50 μl of a 1 mg/ml solution of 3-(4,5-dimethylthiazol-2-yl)-2,5-diphenyltetrazolium bromide (MTT) was added to each well and the cells were incubated for additional 4 h. 200 μl of solution of 0.04 N HCl-isopropanol was added to each well to dissolve the black fromazan participates, and absorbance at 540 nm was measured on a 96-Well Microplate Reader. Each experiment was repeated at least three times.

PC-3 = test: Growth inhibition by MTT, PC-3 prostate cancer cells; format: cell-based, Human; conditions: Homo sapiens, PC-3; MTT, 72 h exposure; read-out: IC50 PC-3
Procedure: as §1

human cancer cell lines = test: Growth inhibition by MTT, all tested human cancer cell lines; format: cell-based; conditions: Homo sapiens, 72 h, read-out: IC50, growth inhibitory effects on all tested human cancer cell lines, range over breast, colon, prostate lines, three day exposure
Procedure: as §1

cdk4/6 = cdk4/6 activity immuno-precipitated from treated LNCaP cells; format: cell-based, Human
Procedure: (§2) Assay for cyclin dependent kinase activity: HUVEC and LNCaP cells were cultured in EMB (endothelial cell basal medium) and RPMI 1640 containing 10% FBS, respectively. The cells grown exponentially were exposed to indicated concentrations of meisoindigo or NATURA for 24 hr. The cells were harvested, washed, and total proteins extracted as described previously. One hundred μg of the proteins were immuno-precipitated using antibodies against cdk2, cdk4/6, PKC, ERK2 or cyclin D1 overnight at 4° C. in the presence of a cocktail of protease inhibitors. The immuno-precipitates were washed 4 times with protein extraction buffer and once with kinase assay buffer, and reacted with 75 μg/ml histone H1 in the presence of [γ-^32P]-ATP (2.5 μCi/10 μM). The phosphorylated histone H1 (represent cdk activity) was measured by scintillation counting or by SDS-polyacrylaimde gel electrophoresis. The direct inhibitory effects of Meisoindigo and NATURA were also measured by reaction of immuno-purified specific enzyme from untreated cells directly with the Meisoindigo or NATURA.
as §2, with “HUVEC” for “Assay for cyclin dependent kinase activity: HUVEC”, “either cdk4/6” for “cdk2, cdk4/6, PKC, ERK2”, “[γ-^32P]-ATP.” for “[γ-^32P]-ATP (2.5 μCi/10 μM).”, “counting.” for “counting or by SDS-polyacrylaimde gel electrophoresis. The direct inhibitory effects of Meisoindigo and NATURA were also measured by reaction of immuno-purified specific enzyme from untreated cells directly with the Meisoindigo or NATURA.”

[1] = tested on: poly(ADP-ribose) polymerase (PARP); test: PARP degradation by Western blot in N2A cells; format: cell-based, Mouse; conditions: 24 hours
Procedure: Induction of Apoptosis: As we mentioned previously that cancer cells probably have two options after arrest at G1 phase, i.e. differentiation or apoptosis. […] The cells were harvested, washed and DNA extracted. Approximately 2 μg per lane of DNA were subjected to 2% agarose gel electrophoresis. […] The cells were harvested, washed, and total proteins extracted for determination of PARP degradation by Western blotting as described previously. Upper panels (A & B) are imagines from ECL films, and lower panels (A′ & B′) are densities of the corresponding bands measured by an Imagine Densitometer (expressed as the percent of control).

ML-1 cells = test: Morphological differentiation of ML-1 cells; format: cell-based, human; conditions: 5 days after exposure
[2] = MTT, 72 h exposure (Table 3), read-out: IC50 LNCaP
[3] = 15 μM, LNCaP cells exposed 24 h

Compound	IC50 (SKBR-3; SK-BR-3, 72 h)	IC50 (LOVO)	IC50 (DLD-1)	IC50 (LNCaP; [2])	IC50 (PC-3)	IC50 (human cancer cell lines)	inhibition of D cyclins mediated cdk4/6 enzyme activity (cdk4/6; 5.0 μM, LNCaP cells, 24 h)	inhibition of D cyclins mediated cdk4/6 enzyme activity (cdk4/6; [3])	PARP protein degradation [1]	ML-1 cells differentiated morphologically (ML-1 cells)	IC50 (SKBR-3; SK-BR-3, MTT, 72 h exposure)	IC50 (LNCaP; Table 10, read-out: IC50 in LNCaP cells (NATURA and its derivatives))	activity on cdk4 compared with cdk2 (cdk4/6; 5 μM, LNCaP cells, 24 hours)	inhibitory affect on cdk4/6 activity compared with same concentration of meisoindigo (cdk4/6; 5.0 μm, FIG. 7)
CN1C(=O)/C(=C2/C(=O)Nc3ccccc32)c2ccccc21 [Meisoindigo]	2170 ± 170 nM	5760 ± 720 nM	2150 ± 170 nM	2340 ± 330 nM	3260 ± 510 nM	2150 to 8310 nM	Over 56%	complete inhibition	strong induction	approximately 48%				
CC(=O)OC1COC(N2C(=O)/C(=C3/C(=O)Nc4ccccc43)c3ccccc32)C(OC(C)=O)C1OC(C)=O [NATURA, 1-(β-D-O-Triacetyl-xylopyranosyl)-isoindigo]		4310 ± 590 nM	1640 ± 181 nM	1720 ± 270 nM	2410 ± 390 nM	1640 to 6920 nM	Over 56%	complete inhibition	strong induction	approximately 48%	1710 ± 140 nM	1720 nM	slight stronger activity	greater inhibitory affect

— patent publication US6933315B2, “Derivatives of isoindigo, indigo and indirubin and methods of treating cancer” (priority 2001, dated 2005)
